# Source: PubChem BioAssay AID248 (DTP/NCI, 2004)
# Several values for one entry are separate records, joined by “and”; a condition that tells them apart may be missing. Equal values may be shown once. Toxic doses and inconclusive results are not listed.
# Tested on: L1210 leukemia ip in BDF1 mice, survival T/C
# Assay: NCI In Vivo Anticancer Drug Screen. Data for tumor model L1210 Leukemia (intraperitoneal) in B6D2F1 (BDF1) mice
# Settings: endpoint: mean survival time, higher = longer survival
# Procedure, shortened: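 Transplantable tumor model; survival measured in treated vs vehicle control mice. Value = treated/control.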
# [1] = dose: 100.0 mg/kg/injection, schedule: Q04DX003 (ip), vehicle: saline with Tween-80
# [2] = dose: 200.0 mg/kg/injection, schedule: Q04DX003 (ip), vehicle: saline with Tween-80
# [3] = dose: 400.0 mg/kg/injection, schedule: Q04DX003 (ip), vehicle: saline with Tween-80
# [4] = dose: 100.0 mg/kg/injection, schedule: Q04DX003 (ip), vehicle: Klucel (hydroxypropylcellulose) (HPC)
# [5] = dose: 200.0 mg/kg/injection, schedule: Q04DX003 (ip), vehicle: Klucel (hydroxypropylcellulose) (HPC)
# [6] = dose: 400.0 mg/kg/injection, schedule: Q04DX003 (ip), vehicle: Klucel (hydroxypropylcellulose) (HPC)
# [7] = dose: 100.0 mg/kg/injection, schedule: Q01DX001 (ip), vehicle: saline
# [8] = dose: 200.0 mg/kg/injection, schedule: Q01DX001 (ip), vehicle: saline
# [9] = dose: 400.0 mg/kg/injection, schedule: Q01DX001 (ip), vehicle: saline
# [10] = dose: 100.0 mg/kg/injection, schedule: Q01DX009 (ip), vehicle: Klucel (hydroxypropylcellulose) (HPC)
# [11] = dose: 200.0 mg/kg/injection, schedule: Q01DX009 (ip), vehicle: Klucel (hydroxypropylcellulose) (HPC)
# [12] = dose: 400.0 mg/kg/injection, schedule: Q01DX009 (ip), vehicle: Klucel (hydroxypropylcellulose) (HPC)
# [13] = dose: 50.0 mg/kg/injection, schedule: Q01DX001 (ip), vehicle: saline
# [14] = dose: 50.0 mg/kg/injection, schedule: Q01DX009 (ip), vehicle: saline
# [15] = dose: 75.0 mg/kg/injection, schedule: Q01DX001 (ip), vehicle: saline
# [16] = dose: 100.0 mg/kg/injection, schedule: Q01DX009 (ip), vehicle: saline
# [17] = dose: 150.0 mg/kg/injection, schedule: Q01DX001 (ip), vehicle: saline
# [18] = dose: 200.0 mg/kg/injection, schedule: Q01DX009 (ip), vehicle: saline
smiles,measurement,setting,value
O=NN(CCCl)C(=O)NC1CCC(C(=O)O)CC1 (stereo not drawn),T/C,"dose: 6.0 mg/kg/injection, schedule: Q01DX001 (ip), vehicle: saline with Tween-80",168 % of control
same,T/C,"dose: 9.0 mg/kg/injection, schedule: Q01DX001 (ip), vehicle: saline with Tween-80",195 % of control and 215 % of control
same,T/C,"dose: 13.0 mg/kg/injection, schedule: Q01DX001 (ip), vehicle: saline with Tween-80",275 % of control and 154 % of control and 260 % of control
same,T/C,"dose: 20.0 mg/kg/injection, schedule: Q01DX001 (ip), vehicle: saline with Tween-80",291 % of control and 409 % of control
same,T/C,"dose: 30.0 mg/kg/injection, schedule: Q01DX001 (ip), vehicle: saline with Tween-80",310 % of control
same,T/C,"dose: 45.0 mg/kg/injection, schedule: Q01DX001 (ip), vehicle: saline with Tween-80",544 % of control
same,T/C,"dose: 46.0 mg/kg/injection, schedule: Q01DX001 (ip), vehicle: saline with Tween-80",311 % of control and 191 % of control
same,T/C,"dose: 67.5 mg/kg/injection, schedule: Q01DX001 (ip), vehicle: saline with Tween-80",525 % of control
same,T/C,"dose: 93.0 mg/kg/injection, schedule: Q01DX001 (ip), vehicle: saline with Tween-80",209 % of control and 101 % of control
same,T/C,"dose: 139.0 mg/kg/injection, schedule: Q01DX001 (ip), vehicle: saline with Tween-80",91 % of control
Cc1c(C#N)c2nc(C(=O)c3ccc(Br)cc3)cc(-c3ccc(Br)cc3)n2c1C,T/C,"dose: 50.0 mg/kg/injection, schedule: Q04DX003 (ip), vehicle: saline with Tween-80",98 % of control
same,T/C,[1],111 % of control
same,T/C,[2],103 % of control
same,T/C,[3],106 % of control
Nc1cccc2c1C(=O)c1cccc(N)c1C2=O,T/C,[4],101 % of control
same,T/C,[5],96 % of control
same,T/C,[6],96 % of control
CCCCC(=O)N1C(=O)/C(=C\N(C)C)c2cc(C=O)ccc21,T/C,"dose: 100.0 mg/kg/injection, schedule: Q01DX001 (ip), vehicle: Klucel (hydroxypropylcellulose) (HPC)",90 % of control
same,T/C,"dose: 200.0 mg/kg/injection, schedule: Q01DX001 (ip), vehicle: Klucel (hydroxypropylcellulose) (HPC)",90 % of control
same,T/C,"dose: 400.0 mg/kg/injection, schedule: Q01DX001 (ip), vehicle: Klucel (hydroxypropylcellulose) (HPC)",93 % of control
COC(=O)/C=C/c1cccc([N+](=O)[O-])c1,T/C,[7],100 % of control
same,T/C,[8],100 % of control
same,T/C,[9],100 % of control
CSc1ccc(OC(=O)Nc2ccccc2[N+](=O)[O-])cc1C,T/C,[10],109 % of control
same,T/C,[11],94 % of control
same,T/C,[12],92 % of control
Nc1c2ccccc2cc2cccc[n+]12,T/C,"dose: 9.38 mg/kg/injection, schedule: Q01DX001 (ip), vehicle: other",101 % of control and 100 % of control
same,T/C,"dose: 18.75 mg/kg/injection, schedule: Q01DX001 (ip), vehicle: other",97 % of control and 99 % of control
CCOC(=O)C1(CC)CNCC(CC)(C(=O)OCC)C1=O (stereo not drawn),T/C,[13],103 % of control
same,T/C,[7],104 % of control
same,T/C,[8],101 % of control
same,T/C,[9],97 % of control
NCCCOc1ccc([N+](=O)[O-])cc1Cl,T/C,[14],106 % of control
same,T/C,[15],98 % of control
same,T/C,[16],110 % of control
same,T/C,"dose: 100.0 mg/kg/injection, schedule: Q04DX003 (ip), vehicle: saline",111 % of control
same,T/C,[17],98 % of control
same,T/C,[18],101 % of control
same,T/C,"dose: 200.0 mg/kg/injection, schedule: Q04DX003 (ip), vehicle: saline",101 % of control
CCC(C(=O)c1ccc(F)cc1)C(O)(C(F)(F)F)C(F)(F)F (stereo not drawn),T/C,[1],104 % of control
same,T/C,[2],103 % of control
same,T/C,[3],101 % of control
CC(=O)NCCCCC(N)C(=O)O (stereo not drawn),T/C,[13],104 % of control
same,T/C,[7],93 % of control
same,T/C,[8],93 % of control
same,T/C,[9],95 % of control
C=CSc1ccccc1,T/C,"dose: 100.0 mg/kg/injection, schedule: Q01DX009 (ip), vehicle: saline with Tween-80",105 % of control
same,T/C,"dose: 200.0 mg/kg/injection, schedule: Q01DX009 (ip), vehicle: saline with Tween-80",93 % of control
CC(C)(C)C(=O)C/C=N/Nc1ccc([N+](=O)[O-])cc1[N+](=O)[O-],T/C,[7],96 % of control
same,T/C,[8],106 % of control
same,T/C,[9],100 % of control
CC(=O)OC(C(C)=O)c1ccccc1 (stereo not drawn),T/C,[13],101 % of control
same,T/C,[7],101 % of control
same,T/C,[8],98 % of control
same,T/C,[9],101 % of control
CCON=C1C(C)(C)C(C)(C)C(C)(C)C1(C)C,T/C,[10],98 % of control
same,T/C,[11],95 % of control
same,T/C,[12],96 % of control
OCC#CCO,T/C,"dose: 5.0 mg/kg/injection, schedule: Q01DX001 (ip), vehicle: carboxymethylcellulose (CMC)",95 % of control
same,T/C,"dose: 10.0 mg/kg/injection, schedule: Q01DX001 (ip), vehicle: carboxymethylcellulose (CMC)",104 % of control
same,T/C,"dose: 12.0 mg/kg/injection, schedule: Q04DX003 (ip), vehicle: saline",98 % of control
same,T/C,"dose: 20.0 mg/kg/injection, schedule: Q01DX001 (ip), vehicle: carboxymethylcellulose (CMC)",93 % of control
same,T/C,"dose: 25.0 mg/kg/injection, schedule: Q04DX003 (ip), vehicle: saline",104 % of control
same,T/C,"dose: 40.0 mg/kg/injection, schedule: Q01DX001 (ip), vehicle: carboxymethylcellulose (CMC)",106 % of control
same,T/C,"dose: 50.0 mg/kg/injection, schedule: Q01DX009 (ip), vehicle: other",105 % of control
same,T/C,"dose: 50.0 mg/kg/injection, schedule: Q04DX003 (ip), vehicle: saline",95 % of control
same,T/C,"dose: 80.0 mg/kg/injection, schedule: Q01DX001 (ip), vehicle: carboxymethylcellulose (CMC)",95 % of control
COC1OC(CO)C(O)C(O)C1O (stereo not drawn),T/C,"dose: 44.0 mg/kg/injection, schedule: Q01DX001 (ip), vehicle: saline",102 % of control and 105 % of control
same,T/C,[13],102 % of control
same,T/C,[14],90 % of control
same,T/C,"dose: 66.0 mg/kg/injection, schedule: Q01DX001 (ip), vehicle: saline",96 % of control and 100 % of control
same,T/C,[7],100 % of control and 107 % of control
same,T/C,[16],109 % of control
same,T/C,[17],105 % of control and 107 % of control
same,T/C,[8],100 % of control
same,T/C,[18],93 % of control
same,T/C,[9],111 % of control
O=C1/C(=C\c2ccccc2)SC(=Nc2ccccc2)N1c1ccccc1,T/C,[10],101 % of control
same,T/C,[4],104 % of control
same,T/C,[11],98 % of control
same,T/C,[5],96 % of control
same,T/C,[12],93 % of control
same,T/C,[6],94 % of control
S=c1nc[nH]c2c1CP(c1ccccc1)CC2 (stereo not drawn),T/C,[1],110 % of control
same,T/C,[2],100 % of control
same,T/C,[3],101 % of control
CC(C)OC(=O)CC#N,T/C,[7],103 % of control
same,T/C,[8],103 % of control
same,T/C,[9],103 % of control
O=c1[nH]c2ccccc2cc1Br,T/C,"dose: 100.0 mg/kg/injection, schedule: Q01DX001 (ip), vehicle: other",96 % of control
same,T/C,"dose: 200.0 mg/kg/injection, schedule: Q01DX001 (ip), vehicle: other",96 % of control
same,T/C,"dose: 400.0 mg/kg/injection, schedule: Q01DX001 (ip), vehicle: other",105 % of control
CCCCC#CCCl,T/C,[7],102 % of control
same,T/C,[16],94 % of control
same,T/C,[8],103 % of control
same,T/C,[9],111 % of control
O=C(Nc1ccc(C(=O)Nc2ccc(C3=NCCN3)cc2)cc1)Nc1ccc(C(=O)Nc2ccc(C3=NCCN3)cc2)cc1,T/C,"dose: 15.0 mg/kg/injection, schedule: Q01DX Z (ip), vehicle: methylcellulose (MC)",102 % of control
same,T/C,"dose: 30.0 mg/kg/injection, schedule: Q01DX Z (ip), vehicle: methylcellulose (MC)",103 % of control
same,T/C,"dose: 60.0 mg/kg/injection, schedule: Q01DX Z (ip), vehicle: methylcellulose (MC)",101 % of control
same,T/C,"dose: 62.0 mg/kg/injection, schedule: Q01DX Z (ip), vehicle: carboxymethylcellulose (CMC)",91 % of control
same,T/C,"dose: 120.0 mg/kg/injection, schedule: Q01DX Z (ip), vehicle: methylcellulose (MC)",103 % of control
same,T/C,"dose: 125.0 mg/kg/injection, schedule: Q01DX Z (ip), vehicle: carboxymethylcellulose (CMC)",91 % of control
same,T/C,"dose: 250.0 mg/kg/injection, schedule: Q01DX Z (ip), vehicle: carboxymethylcellulose (CMC)",96 % of control
CCC(=O)/C=C/c1ccc([N+](=O)[O-])cc1,T/C,"dose: 100.0 mg/kg/injection, schedule: Q04DX003 (ip), vehicle: other",101 % of control
same,T/C,"dose: 200.0 mg/kg/injection, schedule: Q04DX003 (ip), vehicle: other",93 % of control
same,T/C,"dose: 400.0 mg/kg/injection, schedule: Q04DX003 (ip), vehicle: other",93 % of control
CN(C(=O)N(CCCl)N=O)C1CCCCC1,T/C,[15],109 % of control
same,T/C,[17],93 % of control
